Values after ≈ are worked out from the molar mass of the structure shown. Where two headings read alike, the source gives them in different places.
Experiments:
Assay type in all cases: cell-based
[1] = system: Fusarium moniliforme (Fm); test: In vitro pathogen growth inhibition assay, Fm; settings: Fusarium verticillioides
Method in brief: (§1)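 Spores in 17% V8 liquid medium, or 1.5 mm Rs mycelial plugs in ¼ PDB, incubated with compound; final concentration checked by OD600 for precipitation. OD readings at 24 and 48 h, blank-subtracted, plus visual ratings; value is concentration giving ≥90% growth inhibition.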

[2] = system: Botrtyis cinerea (Bc); test: In vitro pathogen growth inhibition assay, Bc; settings: 48 h
Method in brief: as §1

[3] = system: Fusarium virguliforme (Fv); test: In vitro pathogen growth inhibition assay, Fv
Method in brief: (§2)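 Spores of Dm, Fv and Pc were diluted in 17% V8 liquid medium; Rs used 1.5 mm mycelial plugs in ¼ PDB. Compounds from 2.5 mg/ml DMSO stocks were combined with inoculum, growth was read by OD600 at 24 and 48 h with blank subtraction, and the reported value is the concentration giving ≥90% inhibition.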

[4] = system: Diplodia maydis (Dm); test: In vitro pathogen growth inhibition assay, Dm; settings: Stenocarpella maydis, 48 h
Method in brief: as §2

[5] = system: Phytophthora capsici (Pc); test: In vitro pathogen growth inhibition assay, Pc; settings: 48 h
Method in brief: as §2

[6] = system: Collectotrichum graminicola (Cg); test: In vitro pathogen growth inhibition assay, Cg; settings: 48 h
Method in brief: as §1

[7] = system: Septoria tritici (St); test: In vitro pathogen growth inhibition assay, St; settings: Zymoseptoria tritici, 48 h
Method in brief: as §1

[8] = system: Rhizoctonia solani (Rs); test: In vitro pathogen growth inhibition assay, Rs (mycelial plugs); settings: Rhizoctonia solani, 48 h, mycelial plugs
Method in brief: as §2

[9] = ≥90% growth inhibition, 48 hours, vs 2% DMSO control, read-out: Compound Concentration (ppm) sufficient for ≥90% inhibition of Fm
[10] = ≥90% growth inhibition, 48 hours, vs 2% DMSO control, read-out: Compound Concentration (ppm) sufficient for ≥90% inhibition of Bc
[11] = ≥90% growth inhibition, 48 hours, vs 2% DMSO control, read-out: Compound Concentration (ppm) sufficient for ≥90% inhibition of Fv
[12] = ≥90% growth inhibition, 48 hours, vs 2% DMSO control, read-out: Compound Concentration (ppm) sufficient for ≥90% inhibition of Dm
[13] = ≥90% growth inhibition, 48 hours, vs 2% DMSO control, read-out: Compound Concentration (ppm) sufficient for ≥90% inhibition of Pc
[14] = ≥90% growth inhibition, 48 hours, vs 2% DMSO control, read-out: Compound Concentration (ppm) sufficient for ≥90% inhibition of Cg
[15] = ≥90% growth inhibition, 48 hours, vs 2% DMSO control, read-out: Compound Concentration (ppm) sufficient for ≥90% inhibition of St
[16] = ≥90% growth inhibition, 48 hours, vs 2% DMSO control, read-out: Compound Concentration (ppm) sufficient for ≥90% inhibition of Rs
[17] = ≥90% inhibition, 48 hours vs 2% DMSO control, read-out: Compound Concentration (ppm) sufficient for ≥90% inhibition of growth, Fm
[18] = ≥90% inhibition, 48 hours vs 2% DMSO control, read-out: Compound Concentration (ppm) sufficient for ≥90% inhibition of growth, Bc
[19] = ≥90% inhibition, 48 hours vs 2% DMSO control, read-out: Compound Concentration (ppm) sufficient for ≥90% inhibition of growth, Fv
[20] = ≥90% inhibition, 48 hours vs 2% DMSO control, read-out: Compound Concentration (ppm) sufficient for ≥90% inhibition of growth, Dm
[21] = ≥90% inhibition, 48 hours vs 2% DMSO control, read-out: Compound Concentration (ppm) sufficient for ≥90% inhibition of growth, Pc
[22] = ≥90% inhibition, 48 hours vs 2% DMSO control, read-out: Compound Concentration (ppm) sufficient for ≥90% inhibition of growth, Cg
[23] = ≥90% inhibition, 48 hours vs 2% DMSO control, read-out: Compound Concentration (ppm) sufficient for ≥90% inhibition of growth, St
[24] = ≥90% inhibition, 48 hours vs 2% DMSO control, read-out: Compound Concentration (ppm) sufficient for ≥90% inhibition of growth, Rs

## Cc1c(-n2nccn2)sc2c1c(=O)n(C(C)(C)C(=O)NC(C)C)c(=O)n2C[C@H](OC(C)C)c1cc(F)ccc1CCC#N [Compound I-277]
[1]; [9]
  IC90: 0.08 mg/L (≈ 0.131 µM)
[2]; [10]
  IC90: 0.4 mg/L (≈ 0.656 µM)
[3]; [11]
  IC90: 0.08 mg/L (≈ 0.131 µM)
[4]; [12]
  IC90: 2 mg/L (≈ 3.28 µM)
[5]; [13]
  IC90: > 50 mg/L
[6]; [14]
  IC90: 0.4 mg/L (≈ 0.656 µM)
[7]; [15]
  IC90: > 50 mg/L
[8]; [16]
  IC90: 0.08 mg/L (≈ 0.131 µM)

## COc1ccccc1[C@H](Cn1c(=O)n(C(C)(C)C(=O)NC(C)C)c(=O)c2c(C)c(-n3cccn3)sc21)OC1CCOCC1 [Compound I-157]
[1]; [17]
  IC90: 2 mg/L (≈ 3.28 µM)
[2]; [18]
  IC90: 10 mg/L (≈ 16.4 µM)
[3]; [19]
  IC90: ≥ 10 mg/L
[4]; [20]
  IC90: 10 mg/L (≈ 16.4 µM)
[5]; [21]
  IC90: > 50 mg/L
[6]; [22]
  IC90: ≥ 10 mg/L
[7]; [23]
  IC90: ≥ 50 mg/L
[8]; [24]
  IC90: 50 mg/L (≈ 82 µM)

## COc1ccc(F)cc1[C@@](O)(CCO)Cn1c(=O)n(C(C)(C)C(=O)NC(C)C)c(=O)c2c(C)c(-n3nccn3)sc21 [Compound I-276]
[1]; [9]
  IC90: 0.4 mg/L (≈ 0.68 µM)
[2]; [10]
  IC90: 2 mg/L (≈ 3.4 µM)
[3]; [11]
  IC90: 2 mg/L (≈ 3.4 µM)
[4]; [12]
  IC90: 2 mg/L (≈ 3.4 µM)
[5]; [13]
  IC90: 10 mg/L (≈ 17 µM)
[6]; [14]
  IC90: 2 mg/L (≈ 3.4 µM)
[7]; [15]
  IC90: > 50 mg/L
[8]; [16]
  IC90: 0.08 mg/L (≈ 0.136 µM)

## COc1ccc(F)cc1[C@H](Cn1c(=O)n(C(C)(C)C(=O)NC(C)C)c(=O)c2c(C)c(-n3cccn3)sc21)OC1CCC(=O)CC1 [Compound I-048]
[1]; [17]
  IC90: 0.08 mg/L (≈ 0.125 µM)
[2]; [18]
  IC90: 0.4 mg/L (≈ 0.625 µM)
[3]; [19]
  IC90: 2 mg/L (≈ 3.13 µM)
[4]; [20]
  IC90: 2 mg/L (≈ 3.13 µM)
[5]; [21]
  IC90: > 50 mg/L
[6]; [22]
  IC90: 10 mg/L (≈ 15.6 µM)
[7]; [23]
  IC90: > 50 mg/L
[8]; [24]
  IC90: 2 mg/L (≈ 3.13 µM)

## CCOC(=O)c1sc2c(c1C)c(=O)n([C@@H](C)C(=O)N1CCCC1)c(=O)n2C[C@H](OCCC#N)c1cc(F)ccc1OC [Compound I-225]
[1]; [9]
  IC90: 2 mg/L (≈ 3.33 µM)
[2]; [10]
  IC90: 10 mg/L (≈ 16.6 µM)
[3]; [11]
  IC90: ≥ 50 mg/L
[4]; [12]
  IC90: > 10 mg/L
[5]; [13]
  IC90: > 50 mg/L
[6]; [14]
  IC90: > 50 mg/L
[7]; [15]
  IC90: > 50 mg/L
[8]; [16]
  IC90: 10 mg/L (≈ 16.6 µM)

## COc1ccc(F)cc1[C@H](Cn1c(=O)n([C@@H](C)C(=O)N(C)C(C)C)c(=O)c2c(C)c(-n3cccn3)sc21)OCCO [Compound I-244]
[1]; [9]
  IC90: 0.4 mg/L (≈ 0.681 µM)
[2]; [10]
  IC90: 2 mg/L (≈ 3.4 µM)
[3]; [11]
  IC90: 2 mg/L (≈ 3.4 µM)
[4]; [12]
  IC90: 10 mg/L (≈ 17 µM)
[5]; [13]
  IC90: 10 mg/L (≈ 17 µM)
[6]; [14]
  IC90: 2 mg/L (≈ 3.4 µM)
[7]; [15]
  IC90: ≥ 50 mg/L
[8]; [16]
  IC90: 0.4 mg/L (≈ 0.681 µM)

## COc1ccc(F)cc1[C@H](Cn1c(=O)n(C(C)(C)C(=O)N2CCOCC2)c(=O)c2c(C)c(-n3nccn3)sc21)OC(C)C [Compound I-021]
[1]; [17]
  IC90: 0.08 mg/L (≈ 0.13 µM)
[2]; [18]
  IC90: 0.4 mg/L (≈ 0.651 µM)
[3]; [19]
  IC90: 0.4 mg/L (≈ 0.651 µM)
[4]; [20]
  IC90: 2 mg/L (≈ 3.25 µM)
[5]; [21]
  IC90: > 50 mg/L
[6]; [22]
  IC90: 2 mg/L (≈ 3.25 µM)
[7]; [23]
  IC90: > 10 mg/L
[8]; [24]
  IC90: 0.4 mg/L (≈ 0.651 µM)

## CCc1ccc(F)cc1[C@H](Cn1c(=O)n(C(C)(C)C(=O)NC(C)C)c(=O)c2c(C)c(-n3nccn3)sc21)OCC(C)(C)C#N [Compound I-279]
[1]; [9]
  IC90: 0.08 mg/L (≈ 0.128 µM)
[2]; [10]
  IC90: 0.08 mg/L (≈ 0.128 µM)
[3]; [11]
  IC90: 0.08 mg/L (≈ 0.128 µM)
[4]; [12]
  IC90: 2 mg/L (≈ 3.21 µM)
[5]; [13]
  IC90: > 50 mg/L
[6]; [14]
  IC90: 0.08 mg/L (≈ 0.128 µM)
[7]; [15]
  IC90: > 50 mg/L
[8]; [16]
  IC90: 0.08 mg/L (≈ 0.128 µM)

## COCCO[C@@H](Cn1c(=O)n(C(C)(C)C(=O)N2CCCC2)c(=O)c2c(C)c(-n3nccn3)sc21)c1cc(F)ccc1OC [Compound I-164]
[1]; [9]
  IC90: 2 mg/L (≈ 3.25 µM)
[2]; [10]
  IC90: 50 mg/L (≈ 81.3 µM)
[3]; [11]
  IC90: 2 mg/L (≈ 3.25 µM)
[4]; [12]
  IC90: 10 mg/L (≈ 16.3 µM)
[5]; [13]
  IC90: > 50 mg/L
[6]; [14]
  IC90: 10 mg/L (≈ 16.3 µM)
[7]; [15]
  IC90: > 50 mg/L
[8]; [16]
  IC90: 50 mg/L (≈ 81.3 µM)

## COc1ccc(F)cc1[C@H](Cn1c(=O)n([C@@H](C)C(=O)N2CCCC2)c(=O)c2c(C)c(-n3nccn3)sc21)OCCC#N [Compound I-201]
[1]; [9]
  IC90: 0.4 mg/L (≈ 0.672 µM)
[2]; [10]
  IC90: 2 mg/L (≈ 3.36 µM)
[3]; [11]
  IC90: ≥ 0.4 mg/L
[4]; [12]
  IC90: ≥ 2 mg/L
[5]; [13]
  IC90: > 50 mg/L
[6]; [14]
  IC90: 10 mg/L (≈ 16.8 µM)
[7]; [15]
  IC90: > 50 mg/L
[8]; [16]
  IC90: 0.08 mg/L (≈ 0.134 µM)
